These results are taken from patent US12312370B2, “Immunoproteasome inhibitors” (Principia Biopharma Inc., priority 2017, dated 2025).

pIC50: −log10 of the molar value.

Assay [1] deals with constitutive proteasome β5c unit (Homo sapiens, UniProt P28074). Put plainly: Caliper-based proteasome enzymatic activity assay, β5c. The format is biochemical. To be noted: human recombinant constitutive proteasome 0.3 nM, FAM-labeled peptide substrate 1 μM, rt 3 h; read-out: β5c subunit IC50.
Assay [2] has as its target immunoproteasome LMP7/B5i subunit (Homo sapiens, UniProt P28062). In words: Caliper-based proteasome enzymatic activity assay, LMP7. It counts as biochemical. As to conditions: human recombinant immunoproteasome 0.3 nM, FAM-labeled peptide substrate 1 μM, rt 3 h; read-out: LMP7 subunit IC50.

In the case of `CC1(C)CCN(C(C)(C)C=C(C#N)C(=O)N2CCC[C@H](OC(=O)N[C@@H](Cc3ccc(F)cc3)B(O)O)C2)C1` [Example 72, ((R)-1-(((((S)-1-(2-cyano-4-(3,3-dimethylpyrrolidin-1-yl)-4-methylpent-2-enoyl)piperidin-3-yl)oxy)carbonyl)amino)-2-(4-fluorophenyl)ethyl)boronic acid], the values for the pIC50 in assay [1] and in assay [2] were 6.07 and 8.27, respectively.

Turning to `CC(C)(C=C(C#N)C(=O)N1CCC[C@@H]1CNC(=O)N[C@@H](Cc1coc2ccccc12)B(O)O)N1CCC(F)(F)CC1` [Example 49, ((R)-2-(benzofuran-3-yl)-1-(3-(((R)-1-(2-cyano-4-(4,4-difluoropiperidin-1-yl)-4-methylpent-2-enoyl)pyrrolidin-2-yl)methyl)ureido)ethyl)boronic acid], the pIC50 was 5.74 in assay [1] and 8.28 in assay [2].

On to `CC1(OC(=O)N[C@@H](Cc2ccc(F)cc2)B(O)O)CCCN(C(=O)C(C#N)=CC(C)(C)N2CCC(F)(F)C2)C1` (mixture of isomers) [Example 94, ((1R)-1-((((1-(2-cyano-4-(3,3-difluoropyrrolidin-1-yl)-4-methylpent-2-enoyl)-3-methylpiperidin-3-yl)oxy)carbonyl)amino)-2-(4-fluorophenyl)ethyl)boronic acid], for which the pIC50 in assay [1] is less than 5.30; in assay [2], 6.62.

On to `C[C@@H]1CN(C(C)(C)C=C(C#N)C(=O)N2CCCC[C@@H](OC(=O)N[C@@H](Cc3ccccc3)B(O)O)C2)C[C@H](C)O1` [Example 127, ((R)-1-(((((R)-1-(2-cyano-4-((2S,6R)-2,6-dimethylmorpholino)-4-methylpent-2-enoyl)azepan-3-yl)oxy)carbonyl)amino)-2-phenylethyl)boronic acid], for which the pIC50 was 5.62 in assay [1] and 8.62 in assay [2].

Regarding `CC(C)C=C(C#N)C(=O)N(C)c1cccc(C[C@H](NCC(F)(F)F)C(=O)N[C@@H](CC(C)C)B(O)O)c1` [Example 27, ((R)-1-((S)-3-(3-(2-cyano-N,4-dimethylpent-2-enamido)phenyl)-2-((2,2,2-trifluoroethyl)amino)propanamido)-3-methylbutyl)boronic acid], the values for the pIC50 in assay [1] and in assay [2] were 6.76 and 7.14, respectively.

On to `CC(C)(C=C(C#N)C(=O)N1CCC[C@H](OC(=O)N[C@@H](CC2=CCCC2)B(O)O)C1)N1CCOCC1` [Example 121, ((R)-1-(((((S)-1-(2-cyano-4-methyl-4-morpholinopent-2-enoyl)piperidin-3-yl)oxy)carbonyl)amino)-2-(cyclopent-1 en-1-yl)ethyl)boronic acid], for which the pIC50 was less than 5.30 in assay [1] and 8.11 in assay [2].

`C[C@H]1CN(C(C)(C)C=C(C#N)C(=O)N2CCCC[C@@H](OC(=O)N[C@@H](Cc3ccccc3)B(O)O)C2)CCO1` [Example 130, ((R)-1-(((((R)-1-(2-cyano-4-methyl-4-((S)-2-methylmorpholino)pent-2-enoyl)azepan-3-yl)oxy)carbonyl)amino)-2-phenylethyl)boronic acid]: the pIC50 was 5.69 in assay [1] and 8.55 in assay [2].

In the case of `C[C@H]1CN(C(C)(C)C=C(C#N)C(=O)N2CCCC[C@@H](OC(=O)N[C@@H](Cc3ccccc3)B(O)O)C2)C[C@H](C)O1` [Example 128, ((R)-1-(((((R)-1-(2-cyano-4-((2S,6S)-2,6-dimethylmorpholino)-4-methylpent-2-enoyl)azepan-3-yl)oxy)carbonyl)amino)-2-phenylethyl)boronic acid], the pIC50 in assay [1] was 5.87; in assay [2] it was 8.33.

For the compound `C[C@H]1CN(C(C)(C)C=C(C#N)C(=O)N2C3CCC2(COC(=O)N[C@@H](Cc2ccccc2)B(O)O)CC3)CCO1` [Example 122, ((R)-1-((((7-(2-cyano-4-methyl-4-((S)-2-methylmorpholino)pent-2-enoyl)-7-azabicyclo[2.2.1]heptan-1-yl)methoxy)carbonyl)amino)-2-phenylethyl)boronic acid], the pIC50 in assay [1] was 5.93; in assay [2], 8.70.

For `CC#CC(=O)N(C)c1cccc(C[C@H](NC(=O)c2cc(Cl)ccc2Cl)C(=O)N[C@@H](Cc2ccccc2)B(O)O)c1` [Example 18, ((R)-1-((S)-2-(2,5-dichlorobenzamido)-3-(3-(N-methylbut-2-ynamido)phenyl)propanamido)-2-phenylethyl)boronic acid], the pIC50 was 8.00 in assay [1] and 8.14 in assay [2].

For the compound `CCc1cccc(C[C@H](NC(=O)[C@H](COC[C@H]2CCCN2C(=O)C(C#N)=CC(C)C)NCC(F)(F)F)B(O)O)c1` [Example 30, ((R)-1-((S)-3-(((R)-1-(2-cyano-4-methylpent-2-enoyl)pyrrolidin-2-yl)methoxy)-2-((2,2,2-trifluoroethyl)amino)propanamido)-2-(3-ethylphenyl)ethyl)boronic acid], the figures for the pIC50 in assay [1] and in assay [2] were 5.74 and 7.06, respectively.

Regarding `CC(C)(C=C(C#N)C(=O)N1CC[C@H](COC(=O)N[C@@H](Cc2ccccc2)B(O)O)C1)N1CCC(F)(F)C1` [Example 95, ((R)-1-(((((S)-1-(2-cyano-4-(3,3-difluoropyrrolidin-1-yl)-4-methylpent-2-enoyl)pyrrolidin-3-yl)methoxy)carbonyl)amino)-2-phenylethyl)boronic acid], the results for the pIC50 in assay [1] and in assay [2] were 5.58 and 8.16, respectively.

In the case of `C=CC(=O)N1C[C@@H](F)[C@@H](OC(=O)N[C@@H](Cc2ccccc2)B(O)O)C1` [Example 124, ((R)-1-(((((3S,4R)-1-acryloyl-4-fluoropyrrolidin-3-yl)oxy)carbonyl)amino)-2-phenylethyl)boronic acid], the results for the pIC50 in assay [1] and in assay [2] were less than 5.30 and 7.43, respectively.

As for `CC(C)C=C(C#N)C(=O)NCCCC[C@H](NC(=O)c1cccc(O)n1)C(=O)N[C@@H](CC(C)C)B(O)O` [Example 7, ((R)-1-((S)-6-(2-cyano-4-methylpent-2-enamido)-2-(6-hydroxypicolinamido)hexanamido)-3-methylbutyl)boronic acid], the figures for the pIC50 in assay [1] and in assay [2] were 9.00 and 8.89, respectively.

As to `Cc1ccncc1C(=O)N[C@@H](CCCCNC(=O)C(C#N)=CC(C)C)C(=O)N[C@@H](Cc1ccccc1)B(O)O` [Example 17, ((R)-1-((S)-6-(2-cyano-4-methylpent-2-enamido)-2-(4-methylnicotinamido)hexanamido)-2-phenylethyl)boronic acid], the pIC50 in assay [1] was 7.96; in assay [2], 8.19.

`CC(C)(C=C(C#N)C(=O)N1CCC[C@H](OC(=O)N[C@@H](Cc2ccccc2)B(O)O)C1)N1CCN2C(=O)OC[C@@H]2C1` [Example 97, ((R)-1-(((((S)-1-(2-cyano-4-methyl-4-((S)-3-oxotetrahydro-3H-oxazolo[3,4-a]pyrazin-7(1H)-yl)pent-2-enoyl)piperidin-3-yl)oxy)carbonyl)amino)-2-phenylethyl)boronic acid]: the pIC50 was 5.71 in assay [1] and 8.11 in assay [2].

In the case of `Cc1ccc(C[C@H](NC(=O)OC[C@H]2CCCN(C(=O)C(C#N)=CC(C)(C)N3CCC(F)(F)C3)C2)B(O)O)cc1` [Example 52, ((R)-1-(((((S)-1-(2-cyano-4-(3,3-difluoropyrrolidin-1-yl)-4-methylpent-2-enoyl)piperidin-3-yl)methoxy)carbonyl)amino)-2-(p-tolyl)ethyl)boronic acid], the pIC50 was 6.15 in assay [1] and 8.77 in assay [2].
